≈ marks a conversion by molar mass, not a printed value. Calls of active or inactive are those of the source. The calls are words filed in the database; no cut-off is given here.

What all share (format): functional
The subject of assay [1] is Bacillus subtilis. Put plainly: Antibacterial activity against Bacillus subtilis PY79.
Assay [2] has as its system Staphylococcus aureus. Put plainly: Antibacterial activity against Staphylococcus aureus ATCC 29213.
In assay [3] the test system is Enterococcus faecalis. Briefly: Antibacterial activity against Enterococcus faecalis ATCC 29212.
Assay [4] has as its system Staphylococcus aureus. Briefly: Antibacterial activity against Staphylococcus aureus ATCC 43300.

`CN1CC[C@@H](CN(Cc2ccccc2)Cc2ccc(F)cc2)OC1=O`: the MIC50 was 95 µg/mL (≈ 277 µM) in assay [1], 87.1 µg/mL (≈ 254 µM) in assay [2], 120 µg/mL (≈ 350 µM) in assay [3] and 119 µg/mL (≈ 348 µM) in assay [4].
Taken in the same sequence, the figures for `CN1CC[C@@H](CN(Cc2ccccc2)Cc2cccc([N+](=O)[O-])c2)OC1=O` were 238 µg/mL (≈ 644 µM), 138 µg/mL (≈ 374 µM), 119 µg/mL (≈ 322 µM) and “inactive”.
With `CCN1CC[C@@H](CN(Cc2ccccc2)Cc2c(F)cccc2F)OC1=O`, the MIC50 was 77 µg/mL (≈ 206 µM) in assay [1], 47 µg/mL (≈ 126 µM) in assay [2], 59.5 µg/mL (≈ 159 µM) in assay [3] and 70 µg/mL (≈ 187 µM) in assay [4].
For `CN1CC[C@@H](CN(Cc2ccccc2)Cc2ccccc2C#N)OC1=O`, the MIC50 in assay [1] amounted to 180 µg/mL (≈ 515 µM); in assay [2] it was 166 µg/mL (≈ 475 µM); in assay [3] it was 59.5 µg/mL (≈ 170 µM); in assay [4], 180 µg/mL (≈ 515 µM).
On to `CCN1CC[C@@H](CN(Cc2ccccc2)Cc2cccc(C#N)c2)OC1=O`, for which the MIC50 in assay [1] worked out at 238 µg/mL (≈ 655 µM); in assay [2], 238 µg/mL (≈ 655 µM); in assay [3] it was 45 µg/mL (≈ 124 µM). In addition, in assay [4], the MIC50 result was “inactive”.
`CN1CC[C@@H](CN(Cc2ccccc2)Cc2cccc(C#N)c2)OC1=O`: the MIC50 in assay [1] came to 180 µg/mL (≈ 515 µM); in assay [2] it was 180 µg/mL (≈ 515 µM); in assay [3], 7.4 µg/mL (≈ 21.2 µM); in assay [4] it was 238 µg/mL (≈ 681 µM).
As for `O=C(N[C@H](CO)[C@H](O)c1ccc([N+](=O)[O-])cc1)C(Cl)Cl` [CHLORAMPHENICOL], the MIC90 in assay [1] worked out at 2 µg/mL (≈ 6.19 µM); in assay [2], 7.44 µg/mL (≈ 23 µM); in assay [3], 4 µg/mL (≈ 12.4 µM); in assay [4] it was 7.44 µg/mL (≈ 23 µM).
With `CCN1CC[C@@H](CN(Cc2ccccc2)Cc2ccc(F)cc2F)OC1=O`, the MIC50 was found to be 38 µg/mL (≈ 101 µM) in assay [1], 45 µg/mL (≈ 120 µM) in assay [2], 59.5 µg/mL (≈ 159 µM) in assay [3] and 50.5 µg/mL (≈ 135 µM) in assay [4].
For the compound `CN1CC[C@@H](CN(Cc2ccccc2)Cc2ccc([N+](=O)[O-])cc2)OC1=O`, the MIC50 came out at 98 µg/mL (≈ 265 µM) in assay [1], 81 µg/mL (≈ 219 µM) in assay [2] and 119 µg/mL (≈ 322 µM) in assay [3]. Moreover, in assay [4], the MIC50 result is “inactive”.
Taken in the same sequence, the figures for `CCN1CC[C@@H](CN(Cc2ccccc2)Cc2ccc(F)cc2)OC1=O` were 42.5 µg/mL (≈ 119 µM), 64 µg/mL (≈ 180 µM), 35 µg/mL (≈ 98.2 µM) and 47 µg/mL (≈ 132 µM).
With `CCN1CC[C@@H](CN(Cc2ccccc2)Cc2ccc(C#N)cc2)OC1=O`, the MIC50 in assay [1] came to 10 µg/mL (≈ 27.5 µM); in assay [2], 180 µg/mL (≈ 495 µM); in assay [3] it was 12 µg/mL (≈ 33 µM); in assay [4], 59.5 µg/mL (≈ 164 µM).
Taken in the same sequence, the figures for `CN1C[C@@H](CN(Cc2ccccc2)Cc2ccccc2Br)OC1=O` were 22 µg/mL (≈ 56.5 µM), 18 µg/mL (≈ 46.2 µM), 7.4 µg/mL (≈ 19 µM) and 21 µg/mL (≈ 53.9 µM).
The like results for `CN1C[C@@H](CN(Cc2ccccc2)Cc2ccc(F)cc2)OC1=O` were, in that order, “inactive”, “inactive”, “inactive” and “inactive”.
As for `CCN1CC[C@@H](CN(Cc2ccccc2)Cc2ccccc2[N+](=O)[O-])OC1=O`, the MIC50 is 100 µg/mL (≈ 261 µM) in assay [1], 72 µg/mL (≈ 188 µM) in assay [2], 43 µg/mL (≈ 112 µM) in assay [3] and 100 µg/mL (≈ 261 µM) in assay [4].
With `CCN1CC[C@@H](CN(Cc2ccccc2)Cc2cccc(OC)c2)OC1=O`, the MIC50 in assay [1] was 95 µg/mL (≈ 258 µM); in assay [2], 90 µg/mL (≈ 244 µM); in assay [3] it was 80.5 µg/mL (≈ 218 µM); in assay [4], 90 µg/mL (≈ 244 µM).
As for `CCN1CC[C@@H](CN(Cc2ccccc2)Cc2ccc([N+](=O)[O-])cc2)OC1=O`, the MIC50 result in assay [1], in assay [2] and in assay [4] was “inactive” throughout. In assay [3], this compound came in with an MIC50 of 45 µg/mL (≈ 117 µM).
For `CN1CC[C@@H](CN(Cc2ccccc2)Cc2ccc(C#N)cc2)OC1=O`, the MIC50 in assay [1] came out at 238 µg/mL (≈ 681 µM); in assay [2] it was 200 µg/mL (≈ 572 µM); in assay [3] it was 238 µg/mL (≈ 681 µM). Further, the MIC50 entry in assay [4] is “inactive”.
For `CN1CC[C@@H](CN(Cc2ccccc2)Cc2ccc(F)cc2F)OC1=O`, the MIC50 in assay [1] is 55 µg/mL (≈ 153 µM); in assay [2] it was 50 µg/mL (≈ 139 µM); in assay [3] it was 59.5 µg/mL (≈ 165 µM); in assay [4] it was 72 µg/mL (≈ 200 µM).
On to `CCN1CC[C@@H](CN(Cc2ccccc2)Cc2cccc3ccccc23)OC1=O`, for which the MIC50 in assay [1] was 7.6 µg/mL (≈ 19.6 µM); in assay [2], 10 µg/mL (≈ 25.7 µM); in assay [3], 7.4 µg/mL (≈ 19 µM); in assay [4], 35 µg/mL (≈ 90.1 µM). Moreover, the values for the MIC90 in assay [1] and in assay [2] were 30 µg/mL (≈ 77.2 µM) and 14.9 µg/mL (≈ 38.4 µM), respectively.
In the case of `CCN1CC[C@@H](CN(Cc2ccccc2)Cc2ccc(Cl)c(Cl)c2)OC1=O`, the MIC50 stood at 5 µg/mL (≈ 12.3 µM) in assay [1], 5.6 µg/mL (≈ 13.7 µM) in assay [2] and 6.56 µg/mL (≈ 16.1 µM) in assay [4]. Besides, the MIC90 in assay [1] is 7.44 µg/mL (≈ 18.3 µM); in assay [2], 9.85 µg/mL (≈ 24.2 µM). In addition, the MIC50 entry in assay [3] was “inactive”.
For the compound `CN1C[C@@H](CN(Cc2ccccc2)Cc2ccc(Br)cc2)OC1=O`, the MIC50 in assay [1] came out at 22 µg/mL (≈ 56.5 µM); in assay [2], 20 µg/mL (≈ 51.4 µM); in assay [4], 59.5 µg/mL (≈ 153 µM). Moreover, the MIC50 entry in assay [3] is “inactive”.
`CN1C[C@@H](CN(Cc2ccccc2)Cc2ccc(F)c(F)c2)OC1=O`: the MIC50 stood at 80 µg/mL (≈ 231 µM) in assay [1] and 119 µg/mL (≈ 344 µM) in assay [2]. The MIC50 entry in assay [3] and in assay [4] was “inactive” each time.
Take `CN1CC[C@@H](CN(Cc2ccccc2)Cc2ccccc2[N+](=O)[O-])OC1=O`: the figures for the MIC50 in assay [1], in assay [2] and in assay [3] were 238 µg/mL (≈ 644 µM), 179 µg/mL (≈ 485 µM) and 238 µg/mL (≈ 644 µM), respectively. Also, the MIC50 result in assay [4] is “inactive”.
In the case of `CCN1CC[C@@H](CN(Cc2ccccc2)Cc2ccccc2C#N)OC1=O`, the MIC50 in assay [1] amounted to 160 µg/mL (≈ 440 µM); in assay [2], 130 µg/mL (≈ 358 µM); in assay [3], 33 µg/mL (≈ 90.8 µM); in assay [4], 180 µg/mL (≈ 495 µM).
For the compound `CN1CC[C@@H](CN(Cc2ccccc2)Cc2ccc3ccccc3c2)OC1=O`, the MIC50 in assay [1] stood at 12 µg/mL (≈ 32 µM); in assay [2], 11.5 µg/mL (≈ 30.7 µM); in assay [3] it was 14.9 µg/mL (≈ 39.8 µM); in assay [4], 13 µg/mL (≈ 34.7 µM). Also, the MIC90 worked out at 30 µg/mL (≈ 80.1 µM) in assay [1] and 14.9 µg/mL (≈ 39.8 µM) in assay [2].
With `CCN1CC[C@@H](CN(Cc2ccccc2)Cc2cc(F)cc(F)c2)OC1=O`, the MIC50 in assay [1] amounted to 43 µg/mL (≈ 115 µM); in assay [2], 40 µg/mL (≈ 107 µM); in assay [3] it was 37 µg/mL (≈ 98.8 µM); in assay [4], 45 µg/mL (≈ 120 µM).
The like results for `CN1C[C@@H](CN(Cc2ccccc2)Cc2ccc(F)cc2F)OC1=O` were, in that order, 90 µg/mL (≈ 260 µM), 85 µg/mL (≈ 245 µM), “inactive” and 119 µg/mL (≈ 344 µM).
Turning to `CCN1CC[C@@H](CN(Cc2ccccc2)Cc2ccccn2)OC1=O`, the MIC50 entry in assay [1], in assay [2], in assay [3] and in assay [4] was “inactive” throughout.
Take `CCN1CC[C@@H](CN(Cc2ccccc2)Cc2cccc([N+](=O)[O-])c2)OC1=O`: the MIC50 in assay [1] was found to be 108 µg/mL (≈ 282 µM); in assay [2], 90 µg/mL (≈ 235 µM); in assay [3] it was 47 µg/mL (≈ 123 µM); in assay [4], 22 µg/mL (≈ 57.4 µM).
Taken in the same sequence, the figures for `CCN1CC[C@@H](CN(Cc2ccccc2)Cc2cccnc2)OC1=O` were “inactive”, “inactive”, 238 µg/mL (≈ 701 µM) and “inactive”.
For `CCN1CC[C@@H](CN(Cc2ccccc2)Cc2ccccc2C)OC1=O`, the MIC50 in assay [1] was found to be 26 µg/mL (≈ 73.8 µM); in assay [2], 22 µg/mL (≈ 62.4 µM); in assay [3], 8.1 µg/mL (≈ 23 µM); in assay [4], 22.5 µg/mL (≈ 63.8 µM). Besides, the MIC90 in assay [1] is 59.5 µg/mL (≈ 169 µM); in assay [2], 29.8 µg/mL (≈ 84.5 µM).
On to `CCN1CC[C@@H](CN(Cc2ccccc2)Cc2ccc3ccccc3c2)OC1=O`, for which the MIC50 stood at 29 µg/mL (≈ 74.6 µM) in assay [1], 15 µg/mL (≈ 38.6 µM) in assay [2] and 13 µg/mL (≈ 33.5 µM) in assay [3]. In assay [4], the MIC50 result is “inactive”.

By MIC50 is commonly meant the lowest concentration that inhibits either 50% of growth or 50% of the strains tested, depending on the study. The term MIC90 denotes the lowest concentration that inhibits either 90% of growth or 90% of the strains tested, depending on the study. Lower therefore signals higher susceptibility.

The values are drawn from ChEMBL document CHEMBL1146952, “Synthesis and antibacterial activities of chiral 1,3-oxazinan-2-one derivatives” (2006).
